Data published in patent publication US10668049B2, “Methods of treating cognitive decline with transforming growth factor beta inhibitors” (The Regents of the University of California, priority 2008, dated 2020).

Experiments:
[1] = test system: astrocytic cultures; assay: RT-PCR of astrocytic cultures exposed to albumin; type: cell-based, rat; settings: albumin for 24 h
Procedure: Primary neuronal cortical cultures were prepared from embryonic day 18 rats as reported previously (Kaufer et al., 2004). Briefly, cells were dissociated with a papain solution for 20 min at 37° C., After the removal of the papain solution, the tissue was resuspended in growth medium [MEM with Earle's salts containing 2.5% B27 supplement, 0.1% mito serum extender, 5% fetal bovine serum (FBS), 20 mM glucose, and 5 mM L-glutamine] and dissociated by mechanical trituration. The cells were plated, and after 4 h in vitro the cell culture medium was replaced with neurobasal medium supplemented with 2% B27 supplement and 0.5 mM GlutaMAX™. The cells were maintained in 5% CO2 at 37° C. After 7 days in vitro, cytosine arabinofuranoside (AraC) (10 μM) was added to the cultures. After 10 days in vitro, the cells were incubated with 0.4 mM albumin for 24 h at 37° C. For astrocytic cultures, astrocytcs were isolated from the cerebral cortices of PO rat pups. Cells were dissociated with papain and mechanical trituration. The cells were cultured in high-glucose Dulbecco's modified eagle medium supplemented with 10% FBS and 1% penicillin/streptomycin at 37° C. and in 5% C02 (medium was replaced every 3-4 days). After 10 days in vitro, the culture medium was replaced with serum-free high-glucose DMEM (containing 1% penicillin/streptomycin) for 18 h. The cells were then incubated in scrum-free medium containing 0.4 mM albumin for 24 h at 37° C. For immunostainings cells were washed with phosphate buffered saline (PBS) and fixed in 4% paraformaldehyde for 15 min. The cells were permeabilized with 0.2% Triton X-100 in PBS for 5 min and washed in PBS. They were then incubated with 5% normal donkey serum in PBS for one hour at room temperature followed by overnight incubation at 4° C. with either mouse anti-NeuN (1:1000: Chemicon, Temecula, Calif.) or mouse anti-GFAP (1:1000: Cell Signaling Technology, Beverly, Mass.). The cells were washed in PBS, incubated with donkey anti-mouse Cy3 (1:1000; Jackson ImmunoResearch. West Grove, Pa.) for 1 hour at room temperature, and then counterstained with DAPI.
Total RNA was isolated from the somatosensory cortices of animals treated with DOC or albumin (24 h treatment; n=3) or from primary cultures (astrocytic and neuronal, n=3 independent experiments). Expression levels were determined by real-time reverse transcriptase-PCR (RT-PCR) with an iQ5 detection system (Bio-Rad, Hercules, Calif.) using gene-specific primer pairs. RT-PCR data were analyzed using the PCR Miner program (Zhao and Fernald, 2005), and fold changes in gene expression were represented relative to sham-operated controls (in-vivo samples) or serum-deprived controls (in-vitro, samples). Ribosomal 18S RNA (18S rRNA) was used as an internal control for variations in sample preparation. For samples from in-vivo treatments, RT-PCR was performed with the iScript one-step RT-PCR kit (Bio-Rad). Control RT-PCR reactions were performed without reverse transcriptase to verify amplification of genomic DNA. For in-vitro samples, DNase treatment was applied, followed by first-strand cDNA synthesis (iScript cDNA Synthesis kit, Bio-Rad). PCR reactions were carried out with iQ SYBR Green Supermix (Bio-Rad). Primer specificity was verified by melt curve analysis. The amplification cycles for 18S, Gja1, GS, SLC1A2, SLC1A3 (GLAST) and Kenj10 consisted of 40 cycles of 10 s at 95° C., 30 s at 55° C., and 30 s at 72° C. […]

[2] = test system: neocortical slices; assay: Field potential recordings of epileptiform activity in neocortical slices; type: cell-based, rat
Procedure: Brain slices for the in vitro experiments were prepared by means of standard techniques (Ivens et al., 2007; Pavlovsky et al., 2003; Seiffert et al., 2004). Slices were transferred to a recording chamber where they were incubated in aCSF containing BSA (6.7 mg/ml), TGF-β1 (10 ng/ml) or artificial serum (aSerum, composition based on aCSF with the following changes, composition in mM: 0.8 MgSO4, 1.3 CaCl2, 5.7 KCl, 1 L-glutamine, 0.1 albumin). To block the activity of TGF-β1, slices were incubated in aCSF containing SB431542 (10 μM) before the addition of TGF-β1 (10 ng/ml). To block TGF-βRs, slices were incubated in aCSF containing SB431542 (10 μM) and TGF-βRII antibody (10 μg/ml) for 30 min followed by incubation in BSA in the presence of TGF-βR blockers. For detection of epileptiform activity, field potentials were recorded >4 h following incubation in cortical layer IV using extracellular glass microelectrodes (˜3 MΩ) in response to bipolar stimulation at the border of white and grey matter.
To assess the hypothesis that activation of the TGF-β signaling pathway is the mechanism underlying albumin-induced epileptogenesis, we activated this pathway directly by incubating neocortical slices with TGF-β1 (10 ng/mL) in artificial cerebrospinal fluid (aCSF) and performed electrophysiological recordings. These recordings were compared to those of slices treated with a solution containing serum levels of electrolytes and 0.1 mM albumin (aSERUM, previously shown to induce epileptogenesis; Ivens et al., 2007), albumin in aCSF, or aCSF (control). […] When albumin was added to the control aCSF solution, epileptiform activity was recorded in response to stimulation of the white matter (n=8 out of 12 slices, 6 animals). Importantly. TGF-β1 treatment was sufficient to recapitulate epileptiform activity similar to that seen following treatment with aSERUM and albumin in aCSF (n=5 out of 5 slices, 4 animals; n=7 out of 9 slices, 3 animals; and n=8 out of 12 slices, 6 animals, respectively). In all three cases, the evoked epileptiform activity, was all-or-none in nature, paroxysmal and prolonged, similar to that seen following BBB opening with bile salts (Ivens et al., 2007; Seiffert et al., 2004) and typical to that observed in acute models of epilepsy (Gutnick et al., 1982).
To further confirm that the TGF-β1 induced epileptiform activity was dependent on the TGF-βR mediated pathway, we performed additional trials of the above experiments in the presence of two TGF-βR blockers (SB431542, the TGF-βRI kinase activity inhibitor and TGF-βRII antibody).

albumin: bovine serum albumin, used to induce epileptogenesis
GS transcript expression [1]: significant down-regulation | Gja1 transcript expression [1]: significant down-regulation | Gjb2 transcript expression [1]: significant down-regulation | Gjb6 transcript expression [1]: significant down-regulation | S1C1A3 transcript expression [1]: significant down-regulation | integral of the field potential ([2]; inducer alone, without TGF-βR blockers): 117.2±35.4 mV*ms | evoked epileptiform activity in response to stimulation of the white matter, slices showing it ([2]; slices incubated with the inducer): 8 out of 12
